Source: patent US20090246276A1, “Pharmaceutical Compositions” (priority 2008, published 2009)
Structures can show the parent of a compound that is named as a salt.

Assay: In-vitro dissolution, 900 ml medium (0.1N HCl, pH 4.5 acetate buffer, pH 6.8 or pH 7.5 phosphate buffer), USP Apparatus 1, 75 rpm, 37° C.
Format: physicochemical
Conditions: for % Released (Bi-layer Tablets): Example 16 coated bi-layer tablet; for % Released (Homogenous Tablets): Example 19 tablet
Protocol: The dissolution profile of the above pharmaceutical composition was determined under the dissolution conditions described below in Tables 1A, 1B, and 1C.

% Released (Example 2 tablet, 0.1N HCl, 1 hr): 15%
% Released (Example 2 tablet, 0.1N HCl, 2 hr): 35%
% Released (Example 2 tablet, 0.1N HCl, 4 hr): 68%
% Released (Example 2 tablet, 0.1N HCl, 8 hr): 99%
% Released (Example 2 tablet, 0.1N HCl, 12 hr): 102%
% Released (Example 2 tablet, 0.1N HCl, 16 hr): 101%
% Released (Example 2 tablet, pH 4.5 acetate buffer, 1 hr): 15%
% Released (Example 2 tablet, pH 4.5 acetate buffer, 2 hr): 35%
% Released (Example 2 tablet, pH 4.5 acetate buffer, 4 hr): 64%
% Released (Example 2 tablet, pH 4.5 acetate buffer, 8 hr): 97%
% Released (Example 2 tablet, pH 4.5 acetate buffer, 12 hr): 101%
% Released (Example 2 tablet, pH 4.5 acetate buffer, 16 hr): 100%
% Released (Example 2 tablet, pH 6.8 phosphate buffer, 1 hr): 14%
% Released (Example 2 tablet, pH 6.8 phosphate buffer, 2 hr): 33%
% Released (Example 2 tablet, pH 6.8 phosphate buffer, 4 hr): 61%
% Released (Example 2 tablet, pH 6.8 phosphate buffer, 8 hr): 92%
% Released (Example 2 tablet, pH 6.8 phosphate buffer, 12 hr): 96%
% Released (Example 2 tablet, pH 6.8 phosphate buffer, 16 hr): 96%
% Released (Example 3 tablet, 0.1N HCl, 1 hr): 14%
% Released (Example 3 tablet, 0.1N HCl, 2 hr): 32%
% Released (Example 3 tablet, 0.1N HCl, 4 hr): 63%
% Released (Example 3 tablet, 0.1N HCl, 8 hr): 102%
% Released (Example 3 tablet, 0.1N HCl, 12 hr): 106%
% Released (Example 3 tablet, 0.1N HCl, 16 hr): 105%
% Released (Example 3 tablet, pH 4.5 acetate buffer, 1 hr): 13%
% Released (Example 3 tablet, pH 4.5 acetate buffer, 2 hr): 29%
% Released (Example 3 tablet, pH 4.5 acetate buffer, 4 hr): 57%
% Released (Example 3 tablet, pH 4.5 acetate buffer, 8 hr): 96%
% Released (Example 3 tablet, pH 4.5 acetate buffer, 12 hr): 102%
% Released (Example 3 tablet, pH 4.5 acetate buffer, 16 hr): 101%
% Released (Example 3 tablet, pH 6.8 phosphate buffer, 1 hr): 13%
% Released (Example 3 tablet, pH 6.8 phosphate buffer, 2 hr): 29%
% Released (Example 3 tablet, pH 6.8 phosphate buffer, 4 hr): 59%
% Released (Example 3 tablet, pH 6.8 phosphate buffer, 8 hr): 99%
% Released (Example 3 tablet, pH 6.8 phosphate buffer, 12 hr): 104%
% Released (Example 3 tablet, pH 6.8 phosphate buffer, 16 hr): 104%
% Released (Example 5 tablet, 0.1N HCl, 1 hr): 13%
% Released (Example 5 tablet, 0.1N HCl, 2 hr): 26%
% Released (Example 5 tablet, 0.1N HCl, 4 hr): 49%
% Released (Example 5 tablet, 0.1N HCl, 8 hr): 81%
% Released (Example 5 tablet, 0.1N HCl, 12 hr): 97%
% Released (Example 5 tablet, 0.1N HCl, 16 hr): 98%
% Released (Example 6 tablet, 0.1N HCl, 1 hr): 16%
% Released (Example 6 tablet, 0.1N HCl, 2 hr): 34%
% Released (Example 6 tablet, 0.1N HCl, 4 hr): 63%
% Released (Example 6 tablet, 0.1N HCl, 8 hr): 97%
% Released (Example 6 tablet, 0.1N HCl, 12 hr): 100%
% Released (Example 6 tablet, 0.1N HCl, 16 hr): 100%
% Released (Example 7 tablet, 0.1N HCl, 1 hr): 2%
% Released (Example 7 tablet, 0.1N HCl, 2 hr): 7%
% Released (Example 7 tablet, 0.1N HCl, 4 hr): 19%
% Released (Example 7 tablet, 0.1N HCl, 8 hr): 44%
% Released (Example 7 tablet, 0.1N HCl, 12 hr): 63%
% Released (Example 7 tablet, 0.1N HCl, 16 hr): 77%
% Released (Example 8 tablet, 0.1N HCl, 1 hr): 0%
% Released (Example 8 tablet, 0.1N HCl, 2 hr): 1%
% Released (Example 8 tablet, 0.1N HCl, 4 hr): 6%
% Released (Example 8 tablet, 0.1N HCl, 8 hr): 19%
% Released (Example 8 tablet, 0.1N HCl, 12 hr): 31%
% Released (Example 8 tablet, 0.1N HCl, 16 hr): 40%
% Released (Example 9 tablet, 0.1N HCl, 1 hr): 17%
% Released (Example 9 tablet, 0.1N HCl, 2 hr): 48%
% Released (Example 9 tablet, 0.1N HCl, 3 hr): 74%
% Released (Example 9 tablet, 0.1N HCl, 4 hr): 93%
% Released (Example 9 tablet, 0.1N HCl, 6 hr): 104%
% Released (Example 9 tablet, 0.1N HCl, 8 hr): 103%
% Released (Example 9 tablet, 0.1N HCl, 10 hr): 103%
% Released (Example 10 tablet, 0.1N HCl, 1 hr): 14%
% Released (Example 10 tablet, 0.1N HCl, 2 hr): 32%
% Released (Example 10 tablet, 0.1N HCl, 4 hr): 59%
% Released (Example 10 tablet, 0.1N HCl, 8 hr): 94%
% Released (Example 10 tablet, 0.1N HCl, 12 hr): 99%
% Released (Example 10 tablet, 0.1N HCl, 16 hr): 99%
% Released (Example 11 tablet, 0.1N HCl, 1 hr): 16%
% Released (Example 11 tablet, 0.1N HCl, 2 hr): 33%
% Released (Example 11 tablet, 0.1N HCl, 4 hr): 56%
% Released (Example 11 tablet, 0.1N HCl, 8 hr): 88%
% Released (Example 11 tablet, 0.1N HCl, 12 hr): 97%
% Released (Example 11 tablet, 0.1N HCl, 16 hr): 97%
% Released (Example 12 tablet, 0.1N HCl, 1 hr): 8%
% Released (Example 12 tablet, 0.1N HCl, 2 hr): 29%
% Released (Example 12 tablet, 0.1N HCl, 3 hr): 47%
% Released (Example 12 tablet, 0.1N HCl, 4 hr): 63%
% Released (Example 12 tablet, 0.1N HCl, 5 hr): 77%
% Released (Example 12 tablet, 0.1N HCl, 6 hr): 92%
% Released (Example 12 tablet, 0.1N HCl, 7 hr): 98%
% Released (Example 12 tablet, 0.1N HCl, 8 hr): 102%
% Released (Example 13 tablet, 0.1N HCl, 1 hr): 9%
% Released (Example 13 tablet, 0.1N HCl, 2 hr): 28%
% Released (Example 13 tablet, 0.1N HCl, 3 hr): 45%
% Released (Example 13 tablet, 0.1N HCl, 4 hr): 60%
% Released (Example 13 tablet, 0.1N HCl, 6 hr): 83%
% Released (Example 13 tablet, 0.1N HCl, 8 hr): 96%
% Released (Example 13 tablet, 0.1N HCl, 10 hr): 99%
% Released (Example 13 tablet, 0.1N HCl, 12 hr): 100%
% Released (Example 13 tablet, 0.1N HCl, 16 hr): 100%
% Released (Example 14 tablet, 0.1N HCl, 4 hr): 56%
% Released (Example 14 tablet, 0.1N HCl, 6 hr): 76%
% Released (Example 14 tablet, 0.1N HCl, 8 hr): 92%
% Released (Example 14 tablet, 0.1N HCl, 10 hr): 99%
% Released (Bi-layer Tablets) (0.1N HCl, 1 hr): 9.47%
% Released (Bi-layer Tablets) (0.1N HCl, 2 hr): 27.06%
% Released (Bi-layer Tablets) (0.1N HCl, 3 hr): 45.32%
% Released (Bi-layer Tablets) (0.1N HCl, 4 hr): 60.81%
% Released (Bi-layer Tablets) (0.1N HCl, 5 hr): 74.22%
% Released (Bi-layer Tablets) (0.1N HCl, 6 hr): 83.48%
% Released (Bi-layer Tablets) (0.1N HCl, 7 hr): 90.11%
% Released (Bi-layer Tablets) (0.1N HCl, 8 hr): 93.47%
% Released (Homogenous Tablets) (0.1N HCl, 1 hr): 16.65%
% Released (Homogenous Tablets) (0.1N HCl, 2 hr): 40.32%
% Released (Homogenous Tablets) (0.1N HCl, 3 hr): 59.61%
% Released (Homogenous Tablets) (0.1N HCl, 4 hr): 75.31%
% Released (Homogenous Tablets) (0.1N HCl, 5 hr): 86.68%
% Released (Homogenous Tablets) (0.1N HCl, 6 hr): 94.46%
% Released (Homogenous Tablets) (0.1N HCl, 7 hr): 99.30%
% Released (Homogenous Tablets) (0.1N HCl, 8 hr): 101.01%
SMILES: CN(C)CCC[C@@]1(c2ccc(F)cc2)OCc2cc(C#N)ccc21 [Escitalopram Ox, escitalopram oxalate]
